# From PubChem BioAssay (NCI)
#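 Method: 48-hour compound exposure of cells in 96-well plates, five concentrations, linear interpolation of endpoints. Here, GI50 denotes the concentration required for 50% inhibition of growth. TGI: concentration producing complete growth inhibition.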
# Experiments:
# Experiment in all cases: growth of human tumour cells (NCI), 48 h
# [1] = test system: NCI/ADR-RES ovarian
# [2] = test system: HCT-15 colon
# [3] = test system: OVCAR-5 ovarian
# [4] = test system: SK-MEL-2 melanoma
# [5] = test system: HOP-62 NSCLC
# [6] = test system: NCI-H460 lung
# [7] = test system: HOP-92 NSCLC
# [8] = test system: DU-145 prostate
# [9] = test system: HCT-116 colon
# [10] = test system: SK-OV-3 ovarian
# [11] = test system: MDA-MB-231 breast
# [12] = test system: CCRF-CEM leukemia
# [13] = test system: SNB-75 CNS
# [14] = test system: A549 NSCLC
# [15] = test system: LOX IMVI melanoma
# [16] = test system: SF-539 CNS
# [17] = test system: A498 renal
# [18] = test system: OVCAR-8 ovarian
# [19] = test system: MDA-MB-435
# [20] = test system: UACC-257 melanoma
# [21] = test system: SN12C renal
# [22] = test system: OVCAR-4 ovarian
# [23] = test system: SNB-19 CNS
# [24] = test system: SF-295 CNS
# [25] = test system: MALME-3M melanoma
# [26] = test system: M14 melanoma
# [27] = test system: ACHN renal
# [28] = test system: NCI-H226 lung
# [29] = test system: K-562 leukemia
# [30] = test system: EKVX NSCLC
# [31] = test system: HCC-2998 colon
# [32] = test system: OVCAR-3 ovarian
# [33] = test system: 786-0 renal
# [34] = test system: SF-268 CNS
# [35] = test system: RPMI-8226 leukemia
# [36] = test system: PC-3 prostate
# [37] = test system: U251 CNS
# [38] = test system: MOLT-4 leukemia
# [39] = test system: KM12 colon
# [40] = test system: UACC-62 melanoma
# [41] = test system: UO-31 renal
# [42] = test system: HT29 colon
# [43] = test system: SK-MEL-28 melanoma
# [44] = test system: CAKI-1 renal
# [45] = test system: HS 578T breast
# [46] = test system: HL-60(TB) leukemia
# [47] = test system: NCI-H522 lung
# [48] = test system: RXF 393 renal
# [49] = test system: IGROV1 ovarian
# [50] = test system: TK-10 renal
# [51] = test system: SK-MEL-5 melanoma
# [52] = test system: SW-620 colon
# [53] = test system: NCI-H23 lung
# [54] = test system: COLO 205 colon
# [55] = test system: BT-549 breast
smiles,measurement,setting,value
C=C1CC2(OC1=O)C(=O)N(C)c1ccc(I)cc12 (centres undefined),GI50,[1],1850 nM
same,TGI,[1],4680 nM
same,GI50,[2],583 nM
same,TGI,[2],1970 nM
same,GI50,[3],2130 nM
same,TGI,[3],4840 nM
same,GI50,[4],2160 nM
same,TGI,[4],6280 nM
same,GI50,[5],12900 nM
same,TGI,[5],27700 nM
same,GI50,[6],2750 nM
same,TGI,[6],11100 nM
same,GI50,[7],659 nM
same,TGI,[7],2690 nM
same,GI50,[8],941 nM
same,TGI,[8],2270 nM
same,GI50,[9],348 nM
same,TGI,[9],1420 nM
same,GI50,[10],9950 nM
same,TGI,[10],22500 nM
same,GI50,[11],1810 nM
same,TGI,[11],5310 nM
same,GI50,[12],1060 nM
same,TGI,[12],> 100000 nM
same,GI50,[13],3690 nM
same,TGI,[13],12700 nM
same,GI50,[14],6230 nM
same,TGI,[14],22500 nM
same,GI50,[15],1140 nM
same,TGI,[15],2520 nM
same,GI50,[16],1380 nM
same,TGI,[16],2800 nM
same,GI50,[17],2500 nM
same,TGI,[17],10200 nM
same,GI50,[18],1760 nM
same,TGI,[18],4900 nM
same,GI50,[19],1570 nM
same,TGI,[19],5490 nM
same,GI50,[20],909 nM
same,TGI,[20],2490 nM
same,GI50,[21],1710 nM
same,TGI,[21],4020 nM
same,GI50,[22],1270 nM
same,TGI,[22],5430 nM
same,GI50,[23],6980 nM
same,TGI,[23],20200 nM
same,GI50,[24],2300 nM
same,TGI,[24],8160 nM
same,GI50,[25],272 nM
same,TGI,[25],1930 nM
same,GI50,[26],1490 nM
same,TGI,[26],3030 nM
same,GI50,[27],624 nM
same,TGI,[27],1830 nM
same,GI50,[28],2310 nM
same,TGI,[28],9900 nM
same,GI50,[29],1310 nM
same,TGI,[29],> 23700 nM
same,GI50,[30],1660 nM
same,TGI,[30],8150 nM
same,GI50,[31],2690 nM
same,TGI,[31],7040 nM
same,GI50,[32],422 nM
same,TGI,[32],1430 nM
same,GI50,[33],1650 nM
same,TGI,[33],3180 nM
same,GI50,[34],2010 nM
same,TGI,[34],5010 nM
same,GI50,[35],558 nM
same,TGI,[35],2530 nM
same,GI50,[36],2290 nM
same,TGI,[36],7860 nM
same,GI50,[37],1810 nM
same,TGI,[37],5210 nM
same,GI50,[38],548 nM
same,TGI,[38],3450 nM
same,GI50,[39],3370 nM
same,TGI,[39],8550 nM
same,GI50,[40],1250 nM
same,TGI,[40],2690 nM
same,GI50,[41],622 nM
same,TGI,[41],2030 nM
same,GI50,[42],1030 nM
same,GI50,[43],1730 nM
same,TGI,[43],3600 nM
same,GI50,[44],836 nM
same,TGI,[44],2790 nM
same,GI50,[45],3260 nM
same,TGI,[45],> 22700 nM
same,GI50,[46],337 nM
same,TGI,[46],1540 nM
same,GI50,[47],444 nM
same,TGI,[47],1800 nM
same,GI50,[48],481 nM
same,TGI,[48],1180 nM
same,GI50,[49],1230 nM
same,TGI,[49],4560 nM
same,GI50,[50],1440 nM
same,TGI,[50],3170 nM
same,GI50,[51],2260 nM
same,TGI,[51],6370 nM
same,GI50,[52],566 nM
same,TGI,[52],2040 nM
same,GI50,[53],1740 nM
same,TGI,[53],4580 nM
same,GI50,[54],841 nM
same,TGI,[54],2170 nM
same,GI50,[55],1560 nM
same,TGI,[55],4190 nM
